Laboratory results taken from ChEMBL document CHEMBL1201862, “PubChem BioAssay data set” (2004).
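How tested: cells in 96-well plates exposed to compound for 48 hours at five concentrations. GI50 = concentration required for 50% inhibition of growth.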 Active and inactive are the calls of the source. Cut-off read from the data, not from the text of the source: active = GI50 up to about 1.1 µM and inactive = higher.

Columns and labels:
Test in all cases: NCI anticancer screen, dose series, 48 h
OVCAR-3 = test system: OVCAR-3
OVCAR-8 = test system: OVCAR-8
SNB-75 = test system: SNB-75
NCI-H226 = test system: NCI-H226
HCT-15 = test system: HCT-15
KM12 = test system: KM12
Malme-3M = test system: Malme-3M
HOP-92 = test system: HOP-92
SW-620 = test system: SW-620
T47D = test system: T47D
A549 = test system: A549
HL-60 = test system: HL-60
SF-539 = test system: SF-539
SK-MEL-28 = test system: SK-MEL-28
SN12C = test system: SN12C
UACC-257 = test system: UACC-257
NCI-H460 = test system: NCI-H460
SK-MEL-2 = test system: SK-MEL-2
SR = test system: SR

Row | SMILES | GI50 (OVCAR-3) | GI50 (OVCAR-8) | GI50 (SNB-75) | GI50 (NCI-H226) | GI50 (HCT-15) [µM] | GI50 (KM12) | GI50 (Malme-3M) | GI50 (HOP-92) | GI50 (SW-620) | GI50 (T47D) | GI50 (A549) | GI50 (HL-60) | GI50 (SF-539) | GI50 (SK-MEL-28) | GI50 (SN12C) | GI50 (UACC-257) | GI50 (NCI-H460) | GI50 (SK-MEL-2) | GI50 (SR)
1 | Nc1cc(O)c2c(c1O)C(=O)C=CC2=O | 2.64 µM (inactive) | 8.24 µM (inactive) | 30.7 µM (inactive) | 67.1 µM (inactive) | 7.41 | 19.6 µM (inactive) | 2.67 µM (inactive) | 14.8 µM (inactive) | 4.33 µM (inactive) | 13.2 µM (inactive) | 19.6 µM (inactive) | 2.21 µM (inactive) | 18.9 µM (inactive) | 17.7 µM (inactive) | 16.1 µM (inactive) | 14.5 µM (inactive) | 9.57 µM (inactive) | 14 µM (inactive) | 
2 | Cc1cccc2c1nc1n2C(=O)c2ccccc2-1 | > 100 µM (inactive) | > 100 µM (inactive) | > 100 µM (inactive) | > 100 µM (inactive) | > 100 | > 100 µM (inactive) | > 100 µM (inactive) | > 100 µM (inactive) | > 100 µM (inactive) |  | > 100 µM (inactive) | > 100 µM (inactive) | > 100 µM (inactive) | > 100 µM (inactive) | > 100 µM (inactive) | > 100 µM (inactive) | > 100 µM (inactive) | > 100 µM (inactive) | > 100 µM (inactive)
3 | CC(C)C(Br)CCC1=CCC(Br)(Br)C1 (stereo unspecified) | 13 µM (inactive) |  | 10.9 µM (inactive) | 11.9 µM (inactive) |  | 13.3 µM (inactive) | 14.6 µM (inactive) | 5.2 µM (inactive) | 3.52 µM (inactive) |  | 17.9 µM (inactive) | 3.4 µM (inactive) | 19.2 µM (inactive) | 15.6 µM (inactive) | 4.2 µM (inactive) | 14.5 µM (inactive) | 16.7 µM (inactive) | 5.77 µM (inactive) | 2.62 µM (inactive)
4 | NC(=O)OCc1c(-c2ccccc2)nn(-c2ccccc2)c1COC(N)=O | > 100 µM (inactive) | > 100 µM (inactive) | 45.7 µM (inactive) | > 100 µM (inactive) | > 100 | > 100 µM (inactive) | > 100 µM (inactive) | > 100 µM (inactive) | > 100 µM (inactive) | > 100 µM (inactive) | > 100 µM (inactive) |  | > 100 µM (inactive) | > 100 µM (inactive) | > 100 µM (inactive) | > 100 µM (inactive) |  | > 100 µM (inactive) | 
5 | CCOc1ccc(N/C(=C(/C(Cl)=C(/Cl)NC(C)(C)C)[N+](=O)[O-])n2nnc3ccccc32)cc1 | 25.9 µM (inactive) | 16.6 µM (inactive) | 24.2 µM (inactive) | > 100 µM (inactive) | 20.4 | 21.1 µM (inactive) | 15.8 µM (inactive) |  | 19.2 µM (inactive) | 15.5 µM (inactive) | 70.3 µM (inactive) |  | 24.1 µM (inactive) | 16.4 µM (inactive) | 34 µM (inactive) | 53.7 µM (inactive) | 76.9 µM (inactive) | 31.6 µM (inactive) | 
6 | CCOC(=O)c1c(NS(=O)(=O)c2ccc(C)cc2)sc2c1CCCC2 | 15 µM (inactive) | 35.7 µM (inactive) | 27.1 µM (inactive) | 40.8 µM (inactive) | 15.9 | 19 µM (inactive) |  |  |  | 43.3 µM (inactive) | 24.5 µM (inactive) | 42.7 µM (inactive) | 29.9 µM (inactive) |  | 31.8 µM (inactive) | 35 µM (inactive) | 24.3 µM (inactive) | 17.3 µM (inactive) | 
7 | CCOC(=O)C(=O)Nc1ccc(C)cc1C | > 100 µM (inactive) | > 100 µM (inactive) |  | > 100 µM (inactive) | > 100 | > 100 µM (inactive) | > 100 µM (inactive) | > 100 µM (inactive) | > 100 µM (inactive) |  | > 100 µM (inactive) | > 100 µM (inactive) | > 100 µM (inactive) | > 100 µM (inactive) | > 100 µM (inactive) | > 100 µM (inactive) | > 100 µM (inactive) | > 100 µM (inactive) | > 100 µM (inactive)
8 | COC(=O)[C@](NC(=O)OCc1ccccc1)([C@@H](C)Sc1ccc(C)cc1)C(F)(F)F | > 100 µM (inactive) | 19.5 µM (inactive) |  |  | 27.5 | 42.7 µM (inactive) | 55.7 µM (inactive) |  | 27.2 µM (inactive) |  | 34.6 µM (inactive) | 17.4 µM (inactive) | 69.3 µM (inactive) | 91.8 µM (inactive) |  | 35 µM (inactive) | 34.5 µM (inactive) | > 100 µM (inactive) | 31.1 µM (inactive)
9 | O=c1cccc(C2CC(CO)C3CCCCN3C2)[nH]1 (stereo unspecified) | > 100 µM (inactive) | > 100 µM (inactive) | 86.9 µM (inactive) | > 100 µM (inactive) | > 100 | > 100 µM (inactive) |  | > 100 µM (inactive) | > 100 µM (inactive) | > 100 µM (inactive) | > 100 µM (inactive) | > 100 µM (inactive) | > 100 µM (inactive) | > 100 µM (inactive) | > 100 µM (inactive) | > 100 µM (inactive) | > 100 µM (inactive) | > 100 µM (inactive) | 
10 | CN(C)CCNC(=O)c1cccc2c(NC(CS)C(=O)O)c3ccccc3nc12 (stereo unspecified) | 13 µM (inactive) | 13.5 µM (inactive) | 14.4 µM (inactive) | 5.53 µM (inactive) | 3.72 | 8.47 µM (inactive) | 2.52 µM (inactive) | 19.9 µM (inactive) | 4.05 µM (inactive) |  | 4.62 µM (inactive) | 3.3 µM (inactive) | 2.41 µM (inactive) | 10.7 µM (inactive) | 2.6 µM (inactive) | 10.1 µM (inactive) | 15 µM (inactive) | 12.1 µM (inactive) | 96.2 µM (inactive)
11 | Nc1cc2nc(-c3ccccc3)cn2cn1 | > 100 µM (inactive) | > 100 µM (inactive) | 40.2 µM (inactive) | > 100 µM (inactive) | > 100 | 66.2 µM (inactive) | 20.2 µM (inactive) |  | > 100 µM (inactive) | > 100 µM (inactive) | > 100 µM (inactive) | > 100 µM (inactive) | > 100 µM (inactive) | > 100 µM (inactive) | 85.1 µM (inactive) |  | 99.1 µM (inactive) | > 100 µM (inactive) | 
12 | COc1cc(-c2nc(SC)nc3c2CCc2ccccc2-3)cc(OC)c1OC | 95.1 µM (inactive) | 50.6 µM (inactive) | > 100 µM (inactive) | > 10 µM (inactive) |  | 65.9 µM (inactive) |  | > 100 µM (inactive) | > 100 µM (inactive) | 26.8 µM (inactive) | > 100 µM (inactive) | > 100 µM (inactive) | 83.4 µM (inactive) | > 100 µM (inactive) | > 100 µM (inactive) | 90.8 µM (inactive) |  | > 100 µM (inactive) | 
13 | CCC(=O)/C(=C\I)c1ccccc1 | 1.67 µM (inactive) | 2 µM (inactive) | 1.52 µM (inactive) | 23.4 µM (inactive) | 1.8 | 6.56 µM (inactive) | 1.67 µM (inactive) | 2.16 µM (inactive) | 1.58 µM (inactive) | 1.68 µM (inactive) | 20.9 µM (inactive) | 0.995 µM (active) | 18.1 µM (inactive) | 2.7 µM (inactive) | 2.16 µM (inactive) | 3.55 µM (inactive) | 9.86 µM (inactive) | 2.1 µM (inactive) | 
14 | CCOC(=O)CNC(=O)CNC(=O)CNC(=O)CNNc1c(OCc2ccccc2)c(=O)c1=O | > 100 µM (inactive) | > 100 µM (inactive) | > 100 µM (inactive) | > 100 µM (inactive) | > 100 | > 100 µM (inactive) | > 100 µM (inactive) |  | > 100 µM (inactive) | > 100 µM (inactive) | > 100 µM (inactive) |  |  | > 100 µM (inactive) | > 100 µM (inactive) | > 100 µM (inactive) |  | > 100 µM (inactive) | 
15 | CCOC(=O)/C(C(=O)Nc1cccc(C(F)(F)F)c1)=C(/N)N1CCOCC1 | > 100 µM (inactive) | > 100 µM (inactive) | > 100 µM (inactive) | 86.9 µM (inactive) | > 100 | > 100 µM (inactive) | > 100 µM (inactive) | > 100 µM (inactive) | > 100 µM (inactive) | > 100 µM (inactive) | > 100 µM (inactive) | > 100 µM (inactive) | > 100 µM (inactive) | > 100 µM (inactive) | > 100 µM (inactive) | > 100 µM (inactive) | > 100 µM (inactive) | > 100 µM (inactive) | 
16 | CCOc1cc(C=O)c2c(ccc3ccc(OC)c(OC)c32)c1OC | 31.6 µM (inactive) | 50 µM (inactive) | 36.3 µM (inactive) | 67.1 µM (inactive) | 49.7 | 27.2 µM (inactive) | 55.7 µM (inactive) | > 100 µM (inactive) |  | 35.7 µM (inactive) | 46.1 µM (inactive) | 24.4 µM (inactive) |  | 89.9 µM (inactive) | 70.6 µM (inactive) | 59.3 µM (inactive) | 20 µM (inactive) | 36.8 µM (inactive) | 
17 | Oc1ccc(O)c(Sc2nnc(CCCCCCCCc3nnc(Sc4cc(O)ccc4O)o3)o2)c1 |  |  | > 100 µM (inactive) | > 100 µM (inactive) | 88.7 | 26.7 µM (inactive) | 57.3 µM (inactive) | 24 µM (inactive) | 31.3 µM (inactive) |  | > 100 µM (inactive) |  |  | > 100 µM (inactive) | 90.6 µM (inactive) | > 100 µM (inactive) | 72.9 µM (inactive) | > 100 µM (inactive) | 
18 | CN(CCc1ccc(Br)cc1)CCN1CCCCC1 | 36.6 µM (inactive) | 31.4 µM (inactive) | 22.3 µM (inactive) | 33.4 µM (inactive) | 60.5 | 21.1 µM (inactive) | 22.8 µM (inactive) | 17.7 µM (inactive) | 33.5 µM (inactive) | 39.7 µM (inactive) | 43.4 µM (inactive) |  | 27.3 µM (inactive) | 20.4 µM (inactive) | 81.1 µM (inactive) | 36.3 µM (inactive) | 37.9 µM (inactive) | 24.4 µM (inactive) | 
